{"source": "patent US8541197B2", "about": "(priority 2006, dated 2013)", "key": {"C. elegans": {"system": "C. elegans", "conditions": "worms on mutant or wild-type yeast with E. coli, treated with DPI; expected result of a planned test", "text": "The worms are carefully monitored twice a day from the time the eggs are exposed to the microbial cultures up to day 4, when the Dar phenotype is clearly visible. […] At day 4, the anal swelling (or Dar) phenotype is scored for worms plated on mixed lawns of E. coli and yeast and compared to worms plated on E. coli lawns without yeast or with heat inactivated yeast.\nBriefly, worms reared on mixed cultures of mutant or wild-type yeast with E. coli will be treated with DPI. Its effect on the nematode host will be observed phenotypically (using the Dar phenotype described in Preliminary studies) and biochemically (using the peroxidase assay described in Specific Aim 1B)."}, "[1]": {"system": "ROS produced by the worms", "conditions": "worms on mutant or wild-type yeast with E. coli, treated with DPI; expected result of a planned test", "text": "a) Peroxidase enzyme activity: A commercially available assay (Amplex Red peroxidase kit, Molecular Probes) will be used to test peroxidase activity (20). Briefly, ROS produced by the worms, presumably in response to pathogenic attack, oxidize the substrate Amplex Red, to form a red fluorescent product that can be measured spectrophotometrically.\nBriefly, worms reared on mixed cultures of mutant or wild-type yeast with E. coli will be treated with DPI."}}}
{"compound": "O=S(=O)([O-])[O-].c1ccc2c(c1)[I+]c1ccccc1-2.c1ccc2c(c1)[I+]c1ccccc1-2", "note": "[DPI, Diphenylene iodonium sulfate]", "values": [{"measurement": "Dar phenotype", "setting": "C. elegans", "result": "expect to observe the Dar phenotype"}, {"measurement": "peroxidase activity", "setting": "[1]", "result": "low peroxidase activity"}]}
